Key:
human TRPV1 [1] = target: T1, human TRPV1 (Homo sapiens (Human), UniProt Q8NER1); assay: Acid Activation Assay (pH 5.0, intracellular Ca2+, FLIPR); type: cell-based; details: percentage of the maximal pH 5.0-induced response remaining; recombinant HEK293 hTRPV1 cells; maximum concentration tested 37.5 μM
Outline: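 Readout: peak [Ca2+]i fluorescence over baseline on FLIPR, expressed as percentage remaining of the maximal pH 5.0-evoked signal. Stable hTRPV1-HEK293 cells with Calcium-4 dye received compound (12 half-log concentrations, maximum 37.5 μM) 3 min before acidic pH 5.0 buffer.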

human TRPV1 [2] = target: T1, human TRPV1; assay: Capsaicin Activation Assay (intracellular Ca2+, FLIPR); type: cell-based; details: recombinant HEK293 cells expressing hTRPV1, 50 nM capsaicin
Outline: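 Ca2+ fluorescence was recorded by FLIPR every 1 to 5 seconds in HEK293 cells, clonally selected for stable human TRPV1 expression and plated one day ahead. Test compounds came as serial dilutions of 10 mM DMSO stocks.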

T1 sequence (Q8NER1 whole entry): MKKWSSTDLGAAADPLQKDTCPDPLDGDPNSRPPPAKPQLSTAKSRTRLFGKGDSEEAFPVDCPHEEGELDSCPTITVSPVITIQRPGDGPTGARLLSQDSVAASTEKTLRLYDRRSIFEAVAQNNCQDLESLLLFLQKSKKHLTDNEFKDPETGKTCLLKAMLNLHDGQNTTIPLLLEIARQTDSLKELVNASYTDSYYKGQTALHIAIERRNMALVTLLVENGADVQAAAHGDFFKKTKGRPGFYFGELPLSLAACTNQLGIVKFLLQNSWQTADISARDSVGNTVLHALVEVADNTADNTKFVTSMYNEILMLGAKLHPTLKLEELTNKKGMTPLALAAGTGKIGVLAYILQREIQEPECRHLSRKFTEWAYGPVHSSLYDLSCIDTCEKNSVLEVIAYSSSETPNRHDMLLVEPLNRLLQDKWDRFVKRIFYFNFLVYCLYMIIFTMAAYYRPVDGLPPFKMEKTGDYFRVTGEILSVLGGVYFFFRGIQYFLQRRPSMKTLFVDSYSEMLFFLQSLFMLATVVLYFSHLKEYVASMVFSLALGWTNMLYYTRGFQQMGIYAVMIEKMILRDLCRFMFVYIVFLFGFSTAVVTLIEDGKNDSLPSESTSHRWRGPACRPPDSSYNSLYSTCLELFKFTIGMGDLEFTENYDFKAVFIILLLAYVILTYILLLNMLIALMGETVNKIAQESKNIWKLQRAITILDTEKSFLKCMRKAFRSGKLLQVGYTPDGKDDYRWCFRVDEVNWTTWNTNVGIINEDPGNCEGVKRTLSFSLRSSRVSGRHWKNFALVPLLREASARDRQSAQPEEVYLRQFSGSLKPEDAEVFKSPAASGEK

Compound	human TRPV1 H^+ (max % remain) (human TRPV1 [1]) [%]	IC50 (human TRPV1 [2]) [nM]
CN1C(=O)CCc2ccc(NC(=O)N[C@@H]3CC(CF)(CF)Oc4c(F)cc(F)cc43)cc21 [Example 268, 1-[(4R)-6,8-difluoro-2,2-bis(fluoromethyl)-3,4-dihydro-2H-chromen-4-yl]-3-(1-methyl-2-oxo-1,2,3,4-tetrahydroquinolin-7-yl)urea]	66	1200
CN1C(=O)CCc2ccc(NC(=O)N[C@@H]3CC4(CCC4)Oc4ccc(F)cc43)cc21 [Example 269, 1-[(4R)-6-fluoro-3,4-dihydrospiro[chromene-2,1′-cyclobutan]-4-yl]-3-(1-methyl-2-oxo-1,2,3,4-tetrahydroquinolin-7-yl)urea]	70	540
CCCC1(CCC)C[C@@H](NC(=O)Nc2ccc3c(c2)N(C)C(=O)CC3)c2cccc(F)c2O1 [Example 271, 1-[(4R)-8-fluoro-2,2-dipropyl-3,4-dihydro-2H-chromen-4-yl]-3-(1-methyl-2-oxo-1,2,3,4-tetrahydroquinolin-7-yl)urea]	69	170
CN1C(=O)CCc2ccc(NC(=O)N[C@@H]3CC(CF)(CF)Oc4c3ccc(Cl)c4F)cc21 [Example 273, 1-[(4R)-7-chloro-8-fluoro-2,2-bis(fluoromethyl)-3,4-dihydro-2H-chromen-4-yl]-3-(1-methyl-2-oxo-1,2,3,4-tetrahydroquinolin-7-yl)urea]	55	210
CN1C(=O)CCc2ccc(NC(=O)N[C@@H]3CC(C)(C)Oc4ccc(F)cc43)cc21 [Example 274, 1-[(4R)-6-fluoro-2,2-dimethyl-3,4-dihydro-2H-chromen-4-yl]-3-(1-methyl-2-oxo-1,2,3,4-tetrahydroquinolin-7-yl)urea]	81	53
CN1C(=O)CCc2ccc(NC(=O)N[C@@H]3CC(C)(C)Oc4c3ccc(F)c4Cl)cc21 [Example 275, 1-[(4R)-8-chloro-7-fluoro-2,2-dimethyl-3,4-dihydro-2H-chromen-4-yl]-3-(1-methyl-2-oxo-1,2,3,4-tetrahydroquinolin-7-yl)urea]	83	920
CN1C(=O)CCc2ccc(NC(=O)N[C@H]3CCOc4cc(OC(F)(F)F)ccc43)cc21 [Example 276, 1-(1-methyl-2-oxo-1,2,3,4-tetrahydroquinolin-7-yl)-3-[(4S)-7-(trifluoromethoxy)-3,4-dihydro-2H-chromen-4-yl]urea]	77	44
CN1C(=O)CCc2ccc(NC(=O)N[C@@H]3CC(C)(C)Oc4cc(Cl)ccc43)cc21 [Example 277, 1-[(4R)-7-chloro-2,2-dimethyl-3,4-dihydro-2H-chromen-4-yl]-3-(1-methyl-2-oxo-1,2,3,4-tetrahydroquinolin-7-yl)urea]	33	4200
COCC1(COC)C[C@@H](NC(=O)Nc2ccc3c(c2)N(C)C(=O)CC3)c2cc(F)ccc2O1 [Example 279, 1-[(4R)-6-fluoro-2,2-bis(methoxymethyl)-3,4-dihydro-2H-chromen-4-yl]-3-(1-methyl-2-oxo-1,2,3,4-tetrahydroquinolin-7-yl)urea]	50	510
CN1C(=O)CCc2ccc(NC(=O)N[C@@H]3CC(CF)(CF)Oc4c(F)cccc43)cc21 [Example 281, 1-[(4R)-8-fluoro-2,2-bis(fluoromethyl)-3,4-dihydro-2H-chromen-4-yl]-3-(1-methyl-2-oxo-1,2,3,4-tetrahydroquinolin-7-yl)urea]	86	820
CN1C(=O)CCc2ccc(NC(=O)N[C@@H]3CCOc4ccc(F)cc43)cc21 [Example 282, 1-[(4R)-6-fluoro-3,4-dihydro-2H-chromen-4-yl]-3-(1-methyl-2-oxo-1,2,3,4-tetrahydroquinolin-7-yl)urea]	81	410
CN1C(=O)CCc2ccc(NC(=O)N[C@@H]3CCc4cc(Cl)ccc43)cc21 [Example 283, 1-[(1R)-5-chloro-2,3-dihydro-1H-inden-1-yl]-3-(1-methyl-2-oxo-1,2,3,4-tetrahydroquinolin-7-yl)urea]	84	4800
CN1C(=O)CCc2ccc(NC(=O)N[C@@H]3CCc4cc(F)ccc43)cc21 [Example 285, 1-[(1R)-5-fluoro-2,3-dihydro-1H-inden-1-yl]-3-(1-methyl-2-oxo-1,2,3,4-tetrahydroquinolin-7-yl)urea]	27	55
CN1C(=O)CCc2ccc(NC(=O)N[C@H]3CC(C)(C)Oc4ccc(F)cc43)cc21 [Example 287, 1-[(4S)-6-fluoro-2,2-dimethyl-3,4-dihydro-2H-chromen-4-yl]-3-(1-methyl-2-oxo-1,2,3,4-tetrahydroquinolin-7-yl)urea]	92	13000
CN1C(=O)CCc2ccc(NC(=O)N[C@@H]3C[C@@](C)(CF)Oc4cc(C(F)(F)F)ccc43)cc21 [Example 289, 1-[(2S,4R)-2-(fluoromethyl)-2-methyl-7-(trifluoromethyl)-3,4-dihydro-2H-chromen-4-yl]-3-(1-methyl-2-oxo-1,2,3,4-tetrahydroquinolin-7-yl)urea]	68	230
CN1C(=O)CCc2ccc(NC(=O)N[C@@H]3C[C@@](C)(CF)Oc4cc(Cl)ccc43)cc21 [Example 291, 1-[(2S,4R)-7-chloro-2-(fluoromethyl)-2-methyl-3,4-dihydro-2H-chromen-4-yl]-3-(1-methyl-2-oxo-1,2,3,4-tetrahydroquinolin-7-yl)urea]	71	26
CN1C(=O)CCc2ccc(NC(=O)N[C@@H]3C[C@@](C)(C(F)F)Oc4ccccc43)cc21 [Example 292, 1-[(2S,4R)-2-(difluoromethyl)-2-methyl-3,4-dihydro-2H-chromen-4-yl]-3-(1-methyl-2-oxo-1,2,3,4-tetrahydroquinolin-7-yl)urea]	68	26
CN1C(=O)CCc2ccc(NC(=O)N[C@@H]3C[C@](C)(C(F)F)Oc4ccccc43)cc21 [Example 293, 1-[(2R,4R)-2-(difluoromethyl)-2-methyl-3,4-dihydro-2H-chromen-4-yl]-3-(1-methyl-2-oxo-1,2,3,4-tetrahydroquinolin-7-yl)urea]	72	270

The next lines start with the values.

human TRPV1 H^+ (max % remain) (human TRPV1 [1]) [%]	IC50 (human TRPV1 [2]) [nM]	Compound
86	220	CCC1(CC)C[C@@H](NC(=O)Nc2ccc3c(c2)N(C)C(=O)CC3)c2cc(F)ccc2O1 [Example 270, 1-[(4R)-2,2-diethyl-6-fluoro-3,4-dihydro-2H-chromen-4-yl]-3-(1-methyl-2-oxo-1,2,3,4-tetrahydroquinolin-7-yl)urea]
101	180	CCC1(CC)C[C@@H](NC(=O)Nc2ccc3c(c2)N(C)C(=O)CC3)c2ccc(OC(F)(F)F)cc2O1 [Example 272, 1-[(4R)-2,2-diethyl-7-(trifluoromethoxy)-3,4-dihydro-2H-chromen-4-yl]-3-(1-methyl-2-oxo-1,2,3,4-tetrahydroquinolin-7-yl)urea]
68	77	CN1C(=O)CCc2ccc(NC(=O)N[C@@H]3CCOc4cc(OC(F)(F)F)ccc43)cc21 [Example 278, 1-(1-methyl-2-oxo-1,2,3,4-tetrahydroquinolin-7-yl)-3-[(4R)-7-(trifluoromethoxy)-3,4-dihydro-2H-chromen-4-yl]urea]
68	960	CN1C(=O)CCc2ccc(NC(=O)N[C@@H]3CC(CF)(CF)Oc4ccccc43)cc21 [Example 280, 1-[(4R)-2,2-bis(fluoromethyl)-3,4-dihydro-2H-chromen-4-yl]-3-(1-methyl-2-oxo-1,2,3,4-tetrahydroquinolin-7-yl)urea]
68	260	CN1C(=O)CCc2ccc(NC(=O)N[C@H]3CC4(CCC4)Oc4ccc(F)cc43)cc21 [Example 286, 1-[(4S)-6-fluoro-3,4-dihydrospiro[chromene-2,1′-cyclobutan]-4-yl]-3-(1-methyl-2-oxo-1,2,3,4-tetrahydroquinolin-7-yl)urea]
75	10000	CN1C(=O)CCc2ccc(NC(=O)N[C@@H]3CC4(CCCC4)Oc4ccccc43)cc21 [Example 288, 1-[(4R)-3,4-dihydrospiro[chromene-2,1′-cyclopentan]-4-yl]-3-(1-methyl-2-oxo-1,2,3,4-tetrahydroquinolin-7-yl)urea]
68	15	CN1C(=O)CCc2ccc(NC(=O)N[C@@H]3C[C@](C)(CF)Oc4cc(C(F)(F)F)ccc43)cc21 [Example 290, 1-[(2R,4R)-2-(fluoromethyl)-2-methyl-7-(trifluoromethyl)-3,4-dihydro-2H-chromen-4-yl]-3-(1-methyl-2-oxo-1,2,3,4-tetrahydroquinolin-7-yl)urea]
71	120	CN1C(=O)CCc2ccc(NC(=O)N[C@@H]3CC(C)(C)Oc4c3ccc(Cl)c4F)cc21 [Example 294, 1-[(4R)-7-chloro-8-fluoro-2,2-dimethyl-3,4-dihydro-2H-chromen-4-yl]-3-(1-methyl-2-oxo-1,2,3,4-tetrahydroquinolin-7-yl)urea]
67	99	CN1C(=O)CCc2ccc(NC(=O)N[C@@H]3CC(C)(C)Oc4nc(C(F)(F)F)ccc43)cc21 [Example 295, 1-[(4R)-2,2-dimethyl-7-(trifluoromethyl)-3,4-dihydro-2H-pyrano[2,3-b]pyridin-4-yl]-3-(1-methyl-2-oxo-1,2,3,4-tetrahydroquinolin-7-yl)urea]
